Measurements published in patent US6689773B2, “Uracil substituted phenyl sulfamoyl carboxamides” (BASF Aktiengesellschaft, priority 2000, dated 2004).

Columns and labels:
[1] = system: Polygonum persicaria (POLPE), redshank; ladysthumb; test: Greenhouse post-emergence herbicidal action (Example 149); assay type: in vivo; details: 15.6 or 7.8 g/ha of a.i.
Description: (§1) The culture containers used were plastic flowerpots containing loamy sand with approximately 3.0% of humus as substrate. The seeds of the test plants were sown separately for each species.
(§2) For the post-emergence treatment, the test plants were grown to a plant height of from 3 to 15 cm, depending on the plant habit, and only then treated with the active ingredients which had been suspended or emulsified in water. To this end, the test plants were either sown directly and grown in the same containers, or they were first grown separately as seedlings and transplanted into the test containers a few days prior to treatment. The rate of application for the post-emergence treatment was 15.6 or 7.8 g/ha active ingredient.
(§3) Depending on the species, the plants were kept at from 10-25° C. and 20-35° C., respectively. The test period extended over 2 to 4 weeks. During this time, the plants were tended, and their response to the individual treatments was evaluated.
(§4) Evaluation was carried out using a scale of from 0 to 100. 100 means no emergence of the plants, or complete destruction of at least the aerial parts, and 0 means no damage or normal course of growth.
(§5) The plants used in the greenhouse experiments belonged to the following species: […]

[2] = system: Amaranthus retroflexus (AMARE), Redroot pigweed; test: as above; assay type: in vivo; details: 15.6 or 7.8 g/ha of a.i.
Description: as §1, §2, §3, §4, §5

[3] = system: Pharbitis purpurea (PHBPU), common or tall morningglory; test: as above; assay type: in vivo; details: 15.6 or 7.8 g/ha of a.i.
Description: as §1, §2, §3, §4, §5

[4] = system: potato plants; test: Field trials of preharvest desiccant activity (Example 151); assay type: in vivo, Potatoes; details: EC formulation 120 grams a.i./liter applied to foliage a few weeks before harvest
Description: Field evaluations of preharvest desiccant activity were performed at several different locations using compound Ia.86. In each experiment treatments was replicated three times in a randomized complete block experimental design. Potatoes were grown using good agronomic practices of each area. Treatments were applied a few weeks before planned potato harvest. The test compound was formulated as an emulsifiable concentrate (EC) formulation with 120 grams a.i./liter. The formulation was diluted with water, spray adjuvants were added, and the treatment solution was applied to the foliage of potatoes in from 187 to 600 l/ha of total spray volume. Unless indicated otherwise, the treatments also contained […] of methylated seed oil adjuvant (Hasten or SUN-IT II. In the case of split applications, the second application was made about 1 week after the initial application. At various intervals after treatment, desiccation of stems and leaves was evaluated separately, on a visual % desiccation scale. In each test the test compound was compared to appropriate commercial standards at the normal rate for each standard for the area.

| Structure (SMILES) | herbicidal action [1] | herbicidal action [2] | herbicidal action [3] | desiccation of the leaves and stems of potato plants [4] |
| --- | --- | --- | --- | --- |
| CC(C)N(C)S(=O)(=O)NC(=O)c1cc(-c2ncc(C(F)(F)F)cc2Cl)c(F)cc1Cl [Iy.86, N′-[[2-Chloro-5-[3-chloro-5-(trifluoromethyl)-2-pyridinyl]-4-fluorobenzoyl]]-N-isopropyl-N-methylsulfamide] | very good herbicial action | very good herbicial action | very good herbicial action |  |
| CC(C)N(C)S(=O)(=O)NC(=O)c1cc(-n2c(=O)cc(C(F)(F)F)n(C)c2=O)c(F)cc1Cl [Ia.86] |  |  |  | very effective |
| CC(C)N(C)S(=O)(=O)NC(=O)c1cc(-n2c(=O)n(C)c(=S)n(C)c2=O)c(F)cc1Cl [Ij.86, N′-[2-Chloro-5-(3,5-dimethyl-2,6-dioxo-4-thioxo-1,3,5-triazinan-1-yl)-4-fluorobenzoyl]-N-isopropyl-N-methylsulfamide] | very good herbicial action | very good herbicial action | very good herbicial action |  |
